Reference: patent US8911995B2, “Culture system and method for immunogenicity and immunofunction testing in vitro” (ProBioGen AG, priority 2007, dated 2014)

System: human PBMC
Experiment: Cytokine profile of matrix-embedded, perfused PBMC cultures in device 1 (multiplex bead array)
Format: cell-based
Description: Cryopreserved human PBMC, isolated from whole blood by ficoll density gradient centrifugation, were revitalised using standard protocols. The cell concentration was adjusted to 3 E8 viable cells per mL in X-Vivo 15 cell culture media (Lonza, Basel, Switzerland) supplemented with 5 mg/mL agarose type VII (made from 50 mg/mL 37° C. liquid solution, Sigma-Aldrich, St. Louis, Mo.), 2.5 μg/mL fibronectin (human, Sigma-Aldrich, St. Louis, Mo.) and 1× penicillin/streptomycin solution (100×, Invitrogen, Carlsbad, Calif.).
The device was made of a 1 mm PC plate housing the culture compartment, feeding and draining canals (see FIGS. 1 and 1A). The plate was covered with a 1 mm PC plate on top were the luer connectors were attached and a gas permeable membrane (Biofoil25, Greiner bio-one, Kremsmünster, Germany) at the bottom of the plate for optimal gas supply of the culture. The culture compartment of this special embodiment of device 1 has a volume of 160 μL. The device was incubated in a humidified incubator (37° C./5% carbon dioxide).
Three culture compartments of the device, further illustrated in FIG. 1A, were filled with cell suspension in liquid agarose media avoiding air bubbles (4,8 E7 viable PBMC/compartment). The whole culture device was cooled down to 4° C. for 5 min in order to let the matrix gel. Subsequently the surrounding fluidic system was prefilled with X-Vivo 15 cell culture media and was applied to the luer connectors of the culture device. A flow rate of 13.1 μL/h was set up using a peristaltic media pump.
Samples were taken every day and immediately frozen down to −20° C. for subsequent cytokine analyses using multiplex bead array technology (Luminex, Austin, Tex.).
After the second sample was taken 24 hours after innoculation, 100 μL OKT-3 antibody (100 ng/mL solution in X-Vivo 15, Ortho Biotech, Bridgewater, N.J.) were administered via an injection site in the fluidic system. 5 days after inoculation the last sample was taken and viability of the cultures was checked with acridine orange (1 μg/mL, Sigma, St. Louis, […].) and ethidium bromide (4 μg/mL, Sigma, St. Louis, […].).
The experiment was conducted as described in example 1. PBMCs were derived from a differed donor and cells were subsequently cultured in RPMI 1640 (Invitrogen, Carlsbad, Calif.) supplemented with 10% FCS (Biochrom, Berlin, Germany) and 1× penicillin/streptomycin solution (100×, Invitrogen, Carlsbad, Calif.). As described previously, the culture compartment of culture device 1 (see FIGS. 1 and 1A) was filled with liquid agarose-media (RPMI 1640 10% FCS cell culture media supplemented with 5 mg/mL agarose type VII (from 50 mg/mL 37° C. liquid solution, Sigma-Aldrich, St. Louis, Mo.), 2.5 μg/mL fibronectin (human, Sigma-Aldrich, St. Louis, Mo.) and 1× penicillin/streptomycin solution (100×, Invitrogen, Carlsbad, Calif.) and cells (4,8 E7 PBMC/compartment). After pre-incubation for 24 hours with a constant perfusion rate of 13.1 μL culture media, 100 μL of a 100 ng/mL OKT-3 solution was administered. Samples were taken every 24 hours and frozen down to −20° C. before the cytokine levels were determined.

[1] = Example 1, X-Vivo 15 medium, 100 μL of 100 ng/mL OKT-3
[2] = Example 2, different donor, RPMI 1640 10% FCS, 100 μL of 100 ng/mL OKT-3

Substance: Muromonab-CD3 [OKT-3]
- IFN-gamma release [1]: released
- IL-5 level [1]: raises initially
- TNF-alpha release [1]: released
- IL-2 release (Example 1, X-Vivo 15 medium, 24 hours after administration of 100 μL of 100 ng/mL OKT-3): massive IL-2 burst
- IL-2 level after the initial burst (Example 1, X-Vivo 15 medium, after 72 hours): declined
- IFN-gamma level [2]: only raise slightly
- IL-2 release [2]: massive IL-2 release
- IL-5 level [2]: raises initially
- TNF-alpha level [2]: only raise slightly
